Results from patent US9605004B2, “Chemical compounds” (SYNGENTA LIMITED, priority 2013, dated 2017).

Legend:
[1] = test system: a variety of test species; assay: Pre-emergence herbicidal activity (Example 8a, Table 2); assay type: in vivo; design: key: 0 = no damage to plant, 5 = total damage to plant; conditions: application pre-emergence, rate 1000 g/ha, evaluated after 13 days
Outline: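 Visual 0–5 injury score (5 = total damage) taken 13 days after spraying. Treatment applied one day after sowing, before emergence; glasshouse at 24/16 °C day/night, 14 h photoperiod, 65% humidity.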

[2] = test system: a variety of test species; assay: Post-emergence herbicidal activity (Example 8b, Table 3); assay type: in vivo; conditions: application post-emergence, rate 1000 g/ha, evaluated after 13 days, scale 0-5; for Herbicidal damage score, ABUTH: Abutilon theophrasti; for Herbicidal damage score, ALOMY: Alopecurus myosuroides; for Herbicidal damage score, AMARE: Amaranthus retroflexus; for Herbicidal damage score, ECHCG: Echinochloa crus-galli; for Herbicidal damage score, SETFA: Setaria faberi; for Herbicidal damage score, ZEAMX: Zea mays
Outline: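 Damage rating 0 (none) to 5 (total), assessed 13 days after spraying. Plants received the compound in acetone/water 50:50 with 0.5% Tween 20 at 8 days post-sowing, then were kept at 24/16 °C, 14 h photoperiod, 65% RH.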

CC1=C(Br)C(=O)N(c2cc(C(F)(F)F)n(C)n2)C1O (stereo not drawn) [Compound J4]
4: Pre-emergence herbicidal activity, damage score ALOMY [1] | Pre-emergence herbicidal activity, damage score ECHCG [1] | Pre-emergence herbicidal activity, damage score ZEAMX [1]
5: Pre-emergence herbicidal activity, damage score ABUTH [1] | Pre-emergence herbicidal activity, damage score AMARE [1] | Pre-emergence herbicidal activity, damage score SETFA [1] | Herbicidal damage score, ABUTH [2] | Herbicidal damage score, ALOMY [2] | Herbicidal damage score, AMARE [2] | Herbicidal damage score, ECHCG [2] | Herbicidal damage score, SETFA [2] | Herbicidal damage score, ZEAMX [2]

CC1=C(Br)C(=O)N(c2nn(C)c(C(C)(C)C)c2C#N)C1O (stereo not drawn) [Compound L1]
5: Pre-emergence herbicidal activity, damage score ABUTH [1] | Pre-emergence herbicidal activity, damage score AMARE [1] | Pre-emergence herbicidal activity, damage score ECHCG [1] | Pre-emergence herbicidal activity, damage score SETFA [1] | Herbicidal damage score, ABUTH [2] | Herbicidal damage score, ALOMY [2] | Herbicidal damage score, AMARE [2] | Herbicidal damage score, ECHCG [2] | Herbicidal damage score, SETFA [2]
4: Pre-emergence herbicidal activity, damage score ALOMY [1]
3: Pre-emergence herbicidal activity, damage score ZEAMX [1] | Herbicidal damage score, ZEAMX [2]

CCC1=C(Br)C(=O)N(c2nn(C)c(C(C)(C)C)c2C#N)C1O (stereo not drawn) [Compound L2]
4: Pre-emergence herbicidal activity, damage score ABUTH [1] | Pre-emergence herbicidal activity, damage score ECHCG [1]
3: Pre-emergence herbicidal activity, damage score ALOMY [1] | Pre-emergence herbicidal activity, damage score AMARE [1] | Pre-emergence herbicidal activity, damage score SETFA [1]
1: Herbicidal damage score, ZEAMX [2]
0: Pre-emergence herbicidal activity, damage score ZEAMX [1]
5: Herbicidal damage score, ABUTH [2] | Herbicidal damage score, ALOMY [2] | Herbicidal damage score, AMARE [2] | Herbicidal damage score, ECHCG [2] | Herbicidal damage score, SETFA [2]

CCCC1=C(Br)C(=O)N(c2nn(C)c(C(C)(C)C)c2C#N)C1OC(=O)CC (stereo not drawn) [Compound L3]
3: Pre-emergence herbicidal activity, damage score ALOMY [1] | Pre-emergence herbicidal activity, damage score AMARE [1] | Pre-emergence herbicidal activity, damage score SETFA [1]
5: Herbicidal damage score, ABUTH [2] | Herbicidal damage score, ECHCG [2] | Herbicidal damage score, SETFA [2]
2: Pre-emergence herbicidal activity, damage score ZEAMX [1] | Herbicidal damage score, ZEAMX [2]
4: Pre-emergence herbicidal activity, damage score ABUTH [1] | Pre-emergence herbicidal activity, damage score ECHCG [1] | Herbicidal damage score, ALOMY [2] | Herbicidal damage score, AMARE [2]

CCCC1=C(Br)C(=O)N(c2nn(C)c(C(C)(C)C)c2C#N)C1O (stereo not drawn) [Compound L4]
2: Pre-emergence herbicidal activity, damage score ZEAMX [1] | Herbicidal damage score, ZEAMX [2]
4: Pre-emergence herbicidal activity, damage score ABUTH [1] | Pre-emergence herbicidal activity, damage score ALOMY [1] | Pre-emergence herbicidal activity, damage score SETFA [1]
5: Pre-emergence herbicidal activity, damage score ECHCG [1] | Herbicidal damage score, ABUTH [2] | Herbicidal damage score, ALOMY [2] | Herbicidal damage score, AMARE [2] | Herbicidal damage score, ECHCG [2] | Herbicidal damage score, SETFA [2]
3: Pre-emergence herbicidal activity, damage score AMARE [1]

CC1=C(Br)C(=O)N(c2cc3n(n2)CCC3(C)C)C1O (stereo not drawn) [Compound M1]
4: Pre-emergence herbicidal activity, damage score ALOMY [1] | Pre-emergence herbicidal activity, damage score ZEAMX [1] | Herbicidal damage score, ZEAMX [2]
5: Pre-emergence herbicidal activity, damage score ABUTH [1] | Pre-emergence herbicidal activity, damage score AMARE [1] | Pre-emergence herbicidal activity, damage score ECHCG [1] | Pre-emergence herbicidal activity, damage score SETFA [1] | Herbicidal damage score, ABUTH [2] | Herbicidal damage score, ALOMY [2] | Herbicidal damage score, AMARE [2] | Herbicidal damage score, ECHCG [2] | Herbicidal damage score, SETFA [2]

CC1=C(Br)C(=O)N(c2cc3n(n2)CCCC3(C)C)C1O (stereo not drawn) [Compound M2]
5: Pre-emergence herbicidal activity, damage score ABUTH [1] | Pre-emergence herbicidal activity, damage score AMARE [1] | Pre-emergence herbicidal activity, damage score ECHCG [1] | Herbicidal damage score, ABUTH [2] | Herbicidal damage score, ALOMY [2] | Herbicidal damage score, AMARE [2] | Herbicidal damage score, ECHCG [2] | Herbicidal damage score, SETFA [2]
4: Pre-emergence herbicidal activity, damage score ALOMY [1] | Pre-emergence herbicidal activity, damage score SETFA [1]
3: Pre-emergence herbicidal activity, damage score ZEAMX [1] | Herbicidal damage score, ZEAMX [2]

CC1=C(Br)C(=O)N(c2cc3n(n2)CCSC3(C)C)C1O (stereo not drawn) [Compound M3]
1: Herbicidal damage score, ZEAMX [2]
2: Pre-emergence herbicidal activity, damage score SETFA [1]
4: Pre-emergence herbicidal activity, damage score ABUTH [1]
5: Pre-emergence herbicidal activity, damage score AMARE [1] | Herbicidal damage score, ABUTH [2] | Herbicidal damage score, ALOMY [2] | Herbicidal damage score, AMARE [2] | Herbicidal damage score, ECHCG [2] | Herbicidal damage score, SETFA [2]
0: Pre-emergence herbicidal activity, damage score ZEAMX [1]
3: Pre-emergence herbicidal activity, damage score ALOMY [1] | Pre-emergence herbicidal activity, damage score ECHCG [1]

CC1=C(Br)C(=O)N(c2cc3n(n2)CCS(=O)(=O)C3(C)C)C1O (stereo not drawn) [Compound M4]
2: Pre-emergence herbicidal activity, damage score ALOMY [1] | Pre-emergence herbicidal activity, damage score ECHCG [1] | Pre-emergence herbicidal activity, damage score SETFA [1]
5: Pre-emergence herbicidal activity, damage score ABUTH [1] | Pre-emergence herbicidal activity, damage score AMARE [1] | Herbicidal damage score, ABUTH [2] | Herbicidal damage score, AMARE [2] | Herbicidal damage score, ECHCG [2]
4: Herbicidal damage score, ALOMY [2] | Herbicidal damage score, SETFA [2]
0: Herbicidal damage score, ZEAMX [2]
1: Pre-emergence herbicidal activity, damage score ZEAMX [1]

CC1=C(Br)C(=O)N(c2nn(C)c3c2CCC3(C)C)C1O (stereo not drawn) [Compound N1]
5: Pre-emergence herbicidal activity, damage score ABUTH [1] | Pre-emergence herbicidal activity, damage score AMARE [1] | Pre-emergence herbicidal activity, damage score SETFA [1] | Herbicidal damage score, ABUTH [2] | Herbicidal damage score, ALOMY [2] | Herbicidal damage score, AMARE [2] | Herbicidal damage score, ECHCG [2] | Herbicidal damage score, SETFA [2]
4: Pre-emergence herbicidal activity, damage score ALOMY [1] | Pre-emergence herbicidal activity, damage score ECHCG [1] | Pre-emergence herbicidal activity, damage score ZEAMX [1] | Herbicidal damage score, ZEAMX [2]

COC1=C(Br)C(=O)N(c2nn(C)c(C(C)(C)C)c2Br)C1O (stereo not drawn) [Compound O1]
0: Pre-emergence herbicidal activity, damage score ABUTH [1] | Pre-emergence herbicidal activity, damage score ALOMY [1] | Pre-emergence herbicidal activity, damage score AMARE [1] | Pre-emergence herbicidal activity, damage score ECHCG [1] | Pre-emergence herbicidal activity, damage score SETFA [1] | Pre-emergence herbicidal activity, damage score ZEAMX [1] | Herbicidal damage score, ABUTH [2] | Herbicidal damage score, ALOMY [2] | Herbicidal damage score, AMARE [2] | Herbicidal damage score, ECHCG [2] | Herbicidal damage score, SETFA [2] | Herbicidal damage score, ZEAMX [2]

COC1=C(C)C(O)N(c2cc3n(n2)CCC3(C)C)C1=O (stereo not drawn) [Compound R1]
4: Pre-emergence herbicidal activity, damage score ALOMY [1] | Pre-emergence herbicidal activity, damage score ZEAMX [1]
5: Pre-emergence herbicidal activity, damage score ABUTH [1] | Pre-emergence herbicidal activity, damage score AMARE [1] | Pre-emergence herbicidal activity, damage score ECHCG [1] | Pre-emergence herbicidal activity, damage score SETFA [1] | Herbicidal damage score, ABUTH [2] | Herbicidal damage score, ALOMY [2] | Herbicidal damage score, AMARE [2] | Herbicidal damage score, ECHCG [2] | Herbicidal damage score, SETFA [2] | Herbicidal damage score, ZEAMX [2]

COC1=C(C)C(O)N(c2cc3n(n2)CCCC3(C)C)C1=O (stereo not drawn) [Compound R2]
4: Pre-emergence herbicidal activity, damage score ALOMY [1] | Pre-emergence herbicidal activity, damage score ZEAMX [1] | Herbicidal damage score, ZEAMX [2]
5: Pre-emergence herbicidal activity, damage score ABUTH [1] | Pre-emergence herbicidal activity, damage score AMARE [1] | Pre-emergence herbicidal activity, damage score ECHCG [1] | Pre-emergence herbicidal activity, damage score SETFA [1] | Herbicidal damage score, ABUTH [2] | Herbicidal damage score, ALOMY [2] | Herbicidal damage score, AMARE [2] | Herbicidal damage score, ECHCG [2] | Herbicidal damage score, SETFA [2]

COC1=C(OC)C(O)N(c2cc(C(C)(C)C)n(C)n2)C1=O (stereo not drawn) [Compound T1]
5: Pre-emergence herbicidal activity, damage score ABUTH [1] | Pre-emergence herbicidal activity, damage score AMARE [1] | Pre-emergence herbicidal activity, damage score ECHCG [1] | Herbicidal damage score, ABUTH [2] | Herbicidal damage score, ALOMY [2] | Herbicidal damage score, AMARE [2] | Herbicidal damage score, ECHCG [2] | Herbicidal damage score, SETFA [2]
4: Pre-emergence herbicidal activity, damage score ALOMY [1] | Pre-emergence herbicidal activity, damage score SETFA [1]
2: Pre-emergence herbicidal activity, damage score ZEAMX [1]
3: Herbicidal damage score, ZEAMX [2]

COC1=C(OC)C(O)N(c2cc(C(F)(F)F)n(C)n2)C1=O (stereo not drawn) [Compound T2]
5: Pre-emergence herbicidal activity, damage score ABUTH [1] | Pre-emergence herbicidal activity, damage score ECHCG [1] | Pre-emergence herbicidal activity, damage score SETFA [1] | Herbicidal damage score, ABUTH [2] | Herbicidal damage score, ALOMY [2] | Herbicidal damage score, AMARE [2] | Herbicidal damage score, ECHCG [2] | Herbicidal damage score, SETFA [2] | Herbicidal damage score, ZEAMX [2]
4: Pre-emergence herbicidal activity, damage score ALOMY [1] | Pre-emergence herbicidal activity, damage score AMARE [1] | Pre-emergence herbicidal activity, damage score ZEAMX [1]
